Results taken from patent publication US9808466B2, “Macrocyclic compounds as protein kinase inhibitors” (Fundación Centro Nacional de Investigaciones Oncologicas …, priority 2011, dated 2017).
pIC50: −log10 of the molar value. Like-named read-outs stand apart in the source and are kept apart here.

Legend:
[1] = Pharmacokinetic in BALB-c female mice, i.v. and oral; format: in vivo; conditions: mouse, plasma; for half-life: read-out: T½ last (plasmatic half life) (converted); for clearance: read-out: Cl (plasmatic clearance) (converted); for MRT: read-out: MRT (Mean residence time); for Vd: read-out: Vd (volume of distribution); for bioavailability: read-out: F % (bioavailability); for Cmax: read-out: C max (maximum plasma concentration after oral administration)
Protocol: Experiments were done using BALB-c female mice, 10 weeks old. Compounds were dissolved in selected vehicles at a concentration calculated in order to administer the dose selected in 0.1 mL. Animals were administered by i.v and oral route (by gavage), and sacrificed at different time points (n=3 at each time point). Time points were 0.08, 0.25, 0.5, 1, 4 and 8 h for the i.v branch, and 0.08, 0.16, 0.25, 0.5, 1, 4, 8 and 24 h for oral branch. Blood was collected and processed for plasma which was analyzed and quantified by means of tandem mass spectrometry coupled with liquid chromatography. Pharmacokinetic parameters were estimated by fitting the experimental data to a compartmental model using Winnonlin software for pharmacokinetic analysis.

PIM-1 = target: T1, PIM-1 (Homo sapiens, UniProt P11309); assay: PIM-1 biochemical assay (ADP Hunter); conditions: PIM1
T1 construct: histidine tag (C); made in house
Summary of the method: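 Recombinant His-tagged human PIM-1 (50 pg/μl) with PIMtide peptide (60 μM) and 100 μM ATP in HEPES pH 7.4 buffer with MgCl2, 60 min at 30° C, DMSO below 2%. ADP formed detected by coupled ADP Hunter reaction as resorufin fluorescence (Ex 544/Em 580 nm).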

PI3K (p110α/p85α) = target: T2, PI3K (p110α/p85α) (Homo sapiens, UniProt P42336); assay: PI3K activity assay (ADP Hunter Plus); format: biochemical
T2 construct: purchased Carna Biosciences 07CBS-0402A
Summary of the method: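 ADP accumulation measured by coupled fluorescence (ex 544/em 580 nm) after a 1 h kinase reaction at 25 °C, then 30 min at 37 °C with detection reagents. Activity normalised to no-compound control (100%) and IC50 from sigmoid dose-response fit.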

mTOR = target: T3, mTOR (Homo sapiens, UniProt P42345); assay: mTOR assay (LanthaScreen kinase activity assay); format: biochemical
T3 construct: purchased Invitrogen PV4754

[2] = po, P.O dose 10.00 mg/Kg vs I.V 5.00 mg/Kg
[3] = read-out: PIM-1 activity, IC50 (semi-quantitative class)
[4] = read-out: PI3K alpha activity, IC50 (semi-quantitative class)
[5] = read-out: PI3K alpha actual IC50 (in parentheses)
[6] = read-out: mTOR activity, IC50 (semi-quantitative class)
[7] = read-out: mTOR actual IC50 (in parentheses)

T1 sequence (P11309 whole entry): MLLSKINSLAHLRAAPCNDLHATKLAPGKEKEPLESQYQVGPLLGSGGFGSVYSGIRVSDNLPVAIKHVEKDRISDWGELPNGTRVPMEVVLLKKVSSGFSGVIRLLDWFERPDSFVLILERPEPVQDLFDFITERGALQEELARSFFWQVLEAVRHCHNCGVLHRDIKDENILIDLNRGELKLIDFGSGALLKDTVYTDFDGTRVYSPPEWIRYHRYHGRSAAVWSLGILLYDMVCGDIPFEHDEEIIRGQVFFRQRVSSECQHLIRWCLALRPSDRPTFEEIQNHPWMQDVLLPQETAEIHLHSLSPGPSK
T2 sequence (P42336 whole entry): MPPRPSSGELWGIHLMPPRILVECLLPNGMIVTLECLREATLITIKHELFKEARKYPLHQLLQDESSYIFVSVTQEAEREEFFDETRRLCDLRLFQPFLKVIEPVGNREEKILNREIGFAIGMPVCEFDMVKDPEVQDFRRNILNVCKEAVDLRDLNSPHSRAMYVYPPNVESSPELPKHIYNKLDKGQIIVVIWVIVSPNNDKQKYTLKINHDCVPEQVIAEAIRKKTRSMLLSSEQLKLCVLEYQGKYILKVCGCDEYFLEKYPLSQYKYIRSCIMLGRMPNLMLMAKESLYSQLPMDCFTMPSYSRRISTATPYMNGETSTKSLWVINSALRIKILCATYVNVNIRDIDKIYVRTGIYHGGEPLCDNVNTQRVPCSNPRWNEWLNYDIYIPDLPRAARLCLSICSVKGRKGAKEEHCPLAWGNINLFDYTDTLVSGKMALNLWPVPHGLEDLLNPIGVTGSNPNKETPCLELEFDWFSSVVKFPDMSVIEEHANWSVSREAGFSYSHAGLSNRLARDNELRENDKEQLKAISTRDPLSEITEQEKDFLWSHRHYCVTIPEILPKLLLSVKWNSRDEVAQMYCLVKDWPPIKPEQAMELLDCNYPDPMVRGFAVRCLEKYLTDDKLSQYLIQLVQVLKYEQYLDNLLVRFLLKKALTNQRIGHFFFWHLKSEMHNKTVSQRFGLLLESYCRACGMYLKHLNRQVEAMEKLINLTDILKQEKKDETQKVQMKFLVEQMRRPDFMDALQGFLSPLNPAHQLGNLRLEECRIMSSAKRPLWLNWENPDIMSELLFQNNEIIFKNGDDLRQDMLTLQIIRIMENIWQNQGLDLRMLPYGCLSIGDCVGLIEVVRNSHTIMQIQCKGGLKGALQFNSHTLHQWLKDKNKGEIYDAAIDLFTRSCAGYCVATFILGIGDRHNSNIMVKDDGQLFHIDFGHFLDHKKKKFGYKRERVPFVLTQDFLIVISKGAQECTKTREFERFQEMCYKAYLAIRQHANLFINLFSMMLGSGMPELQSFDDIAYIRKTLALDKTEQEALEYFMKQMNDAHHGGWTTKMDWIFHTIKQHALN
T2 sequence (P27986 whole entry partner): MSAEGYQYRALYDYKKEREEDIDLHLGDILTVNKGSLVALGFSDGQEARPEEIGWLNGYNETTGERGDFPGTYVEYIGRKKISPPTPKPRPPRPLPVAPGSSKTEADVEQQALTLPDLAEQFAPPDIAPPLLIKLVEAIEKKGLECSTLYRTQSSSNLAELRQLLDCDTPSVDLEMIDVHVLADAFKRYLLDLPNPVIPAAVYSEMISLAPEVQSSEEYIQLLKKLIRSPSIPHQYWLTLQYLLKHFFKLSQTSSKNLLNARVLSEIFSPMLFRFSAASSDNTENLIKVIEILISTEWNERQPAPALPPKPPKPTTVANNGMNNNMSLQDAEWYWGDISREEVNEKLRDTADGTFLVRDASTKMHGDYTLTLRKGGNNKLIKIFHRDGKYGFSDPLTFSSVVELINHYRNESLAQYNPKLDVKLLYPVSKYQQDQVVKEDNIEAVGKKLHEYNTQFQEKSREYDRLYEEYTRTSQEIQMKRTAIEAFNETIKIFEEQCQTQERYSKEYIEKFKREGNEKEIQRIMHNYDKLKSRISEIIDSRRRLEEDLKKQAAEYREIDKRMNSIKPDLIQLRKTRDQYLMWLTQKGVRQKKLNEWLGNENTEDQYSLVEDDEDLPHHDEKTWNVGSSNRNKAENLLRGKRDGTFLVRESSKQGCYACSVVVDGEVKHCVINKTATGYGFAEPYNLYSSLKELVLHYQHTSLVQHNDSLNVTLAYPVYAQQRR
T3 sequence (P42345 1360-2549 limits assumed): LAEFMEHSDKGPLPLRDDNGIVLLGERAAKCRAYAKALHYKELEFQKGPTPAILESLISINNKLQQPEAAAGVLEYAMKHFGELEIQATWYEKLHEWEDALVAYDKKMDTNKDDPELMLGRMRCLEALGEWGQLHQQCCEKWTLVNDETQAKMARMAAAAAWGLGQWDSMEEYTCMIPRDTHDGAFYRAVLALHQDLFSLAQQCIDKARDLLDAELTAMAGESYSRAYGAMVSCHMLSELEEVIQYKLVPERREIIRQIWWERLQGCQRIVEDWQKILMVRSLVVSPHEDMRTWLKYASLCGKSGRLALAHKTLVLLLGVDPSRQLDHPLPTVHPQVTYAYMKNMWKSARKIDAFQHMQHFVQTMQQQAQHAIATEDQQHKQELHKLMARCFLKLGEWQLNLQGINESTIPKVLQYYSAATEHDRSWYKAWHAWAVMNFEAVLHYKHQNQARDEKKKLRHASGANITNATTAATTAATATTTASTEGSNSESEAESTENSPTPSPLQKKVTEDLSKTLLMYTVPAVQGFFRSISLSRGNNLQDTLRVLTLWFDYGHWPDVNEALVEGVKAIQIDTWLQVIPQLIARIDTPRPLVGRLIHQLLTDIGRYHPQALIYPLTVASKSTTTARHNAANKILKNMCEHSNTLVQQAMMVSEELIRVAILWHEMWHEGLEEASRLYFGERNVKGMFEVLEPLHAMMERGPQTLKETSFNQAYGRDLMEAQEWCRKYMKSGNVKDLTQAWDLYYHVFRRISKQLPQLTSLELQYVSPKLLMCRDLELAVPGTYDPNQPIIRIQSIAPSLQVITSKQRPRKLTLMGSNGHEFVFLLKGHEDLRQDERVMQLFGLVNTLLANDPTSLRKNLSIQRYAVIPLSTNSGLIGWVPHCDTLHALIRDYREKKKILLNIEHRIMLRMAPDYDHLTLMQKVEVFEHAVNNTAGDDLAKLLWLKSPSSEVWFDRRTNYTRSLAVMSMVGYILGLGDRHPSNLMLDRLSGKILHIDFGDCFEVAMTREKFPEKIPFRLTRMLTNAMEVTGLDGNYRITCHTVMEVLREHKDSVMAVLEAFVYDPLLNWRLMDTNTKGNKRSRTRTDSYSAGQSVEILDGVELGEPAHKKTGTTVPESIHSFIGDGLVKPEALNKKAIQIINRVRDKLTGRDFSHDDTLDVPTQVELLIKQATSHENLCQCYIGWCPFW

Compound | AUC(0-inf) ([1]; iv, I.V, dose 5.00 mg/Kg) [ng·h/mL] | half-life ([1]; iv, I.V, dose 5.00 mg/Kg) [h] | clearance ([1]; iv, I.V, dose 5.00 mg/Kg) [mL/min/kg] | MRT ([1]; iv, I.V, dose 5.00 mg/Kg) [h] | Vd ([1]; iv, I.V, dose 5.00 mg/Kg) [L/kg] | bioavailability [1, 2] [%] | AUC(0-inf) ([1]; po, P.O, dose 10.00 mg/Kg) [ng·h/mL] | Cmax ([1]; po, P.O, dose 10.00 mg/Kg) [ng/mL] | pIC50 (PIM-1; [3]) | pIC50 (PI3K (p110α/p85α); [4]) | pIC50 (PI3K (p110α/p85α); [5]) | pIC50 (mTOR; [6]) | pIC50 (mTOR; [7]) | also measured
COc1ncc2cc1NS(=O)(=O)c1cccc(c1)C(=O)NCc1cncc(c1)-c1ccnc3ccc-2nc13 [compound 31] | 8930 | 0.39 | 11.5 | 0.81 | 0.56 | 34 | 6080 | 1640 | < 6.00 | > 7.00 | 8.70 | > 7.00 | 7.64 | –
COc1ncc2cc1NS(=O)(=O)c1cccc(c1)C(=O)NCC1=CC=C(S1)c1ncnc3c1SC2=C3C [compound 68] | 16600 | 3.15 | 0.667 | 10.9 | 0.49 | 34.5 | 57300 | 2930 | > 7.00 | > 7.00 | 8.60 | > 7.00 | 7.05 | pIC50 (PIM-1; read-out: PIM-1 actual IC50 (in parentheses)): 7.55
COc1ncc2cc1NS(=O)(=O)c1cccc(c1)C(=O)NCc1cccc(c1)-c1cnn3ccc-2nc13 [compound 16] | 23600 | 2.23 | 4.5 | 3.33 | 0.99 | 123 | 29200 | 4820 | < 6.00 | > 7.00 | 9.05 | > 7.00 | 8.40 | –
COc1ncc2cc1NS(=O)(=O)c1cccc(c1)C(=O)N1CCc3ccc(cc3C1)-c1ccnc3ccc-2cc13 [compound 39] | – | – | – | – | – | – | – | – | < 6.00 | > 7.00 | 10.30 | > 7.00 | 9.52 | AUC(0-inf) ([1]; iv, I.V, dose 1.00 mg/Kg): 4460 ng·h/mL; half-life ([1]; iv, I.V, dose 1.00 mg/Kg): 1.66 h; clearance ([1]; iv, I.V, dose 1.00 mg/Kg): 4.17 mL/min/kg; MRT ([1]; iv, I.V, dose 1.00 mg/Kg): 2.39 h; Vd ([1]; iv, I.V, dose 1.00 mg/Kg): 0.59 L/kg; bioavailability ([1]; po, P.O dose 3.00 mg/Kg vs I.V 1.00 mg/Kg): 26.8%; AUC(0-inf) ([1]; po, P.O, dose 3.00 mg/Kg): 3580 ng·h/mL; Cmax ([1]; po, P.O, dose 3.00 mg/Kg): 962 ng/mL
COc1ncc2cc1NS(=O)(=O)c1cccc(c1)C(=O)NCCn1cc(cn1)-c1ncnc3ccc-2cc13 [compound 33] | 9160 | 2.91 | 10 | 1.87 | 1.12 | 48.1 | 8810 | 1270 | < 6.00 | > 7.00 | 8.89 | > 7.00 | 8.32 | –
